Results published in paper PMC3930709, “Selective Activation of hTRPV1 by N-Geranyl Cyclopropylcarboxamide, an Amiloride-Insensitive Salt Taste Enhancer” (PLoS ONE, 2014).
“And” between values parts separate entries of the source, which are not always exact repeats. Identical values can stand only once.

Key:
NaCl taste perception = tested on: NaCl taste perception; design: method as in PMID 23221408; settings: NGCC 5 and 10 µM; cited from earlier work
hTRPV1 = target: T1, hTRPV1 (Homo sapiens, UniProt Q8NER1); test: Measurement of Ca2+ influx (Fluo-4 AM, FlexStation III) in hTRPV1-expressing cells; type: cell-based
T1 construct: expressed in transfected cells; host or cells: HEK293T
T1 sequence (Q8NER1 whole entry): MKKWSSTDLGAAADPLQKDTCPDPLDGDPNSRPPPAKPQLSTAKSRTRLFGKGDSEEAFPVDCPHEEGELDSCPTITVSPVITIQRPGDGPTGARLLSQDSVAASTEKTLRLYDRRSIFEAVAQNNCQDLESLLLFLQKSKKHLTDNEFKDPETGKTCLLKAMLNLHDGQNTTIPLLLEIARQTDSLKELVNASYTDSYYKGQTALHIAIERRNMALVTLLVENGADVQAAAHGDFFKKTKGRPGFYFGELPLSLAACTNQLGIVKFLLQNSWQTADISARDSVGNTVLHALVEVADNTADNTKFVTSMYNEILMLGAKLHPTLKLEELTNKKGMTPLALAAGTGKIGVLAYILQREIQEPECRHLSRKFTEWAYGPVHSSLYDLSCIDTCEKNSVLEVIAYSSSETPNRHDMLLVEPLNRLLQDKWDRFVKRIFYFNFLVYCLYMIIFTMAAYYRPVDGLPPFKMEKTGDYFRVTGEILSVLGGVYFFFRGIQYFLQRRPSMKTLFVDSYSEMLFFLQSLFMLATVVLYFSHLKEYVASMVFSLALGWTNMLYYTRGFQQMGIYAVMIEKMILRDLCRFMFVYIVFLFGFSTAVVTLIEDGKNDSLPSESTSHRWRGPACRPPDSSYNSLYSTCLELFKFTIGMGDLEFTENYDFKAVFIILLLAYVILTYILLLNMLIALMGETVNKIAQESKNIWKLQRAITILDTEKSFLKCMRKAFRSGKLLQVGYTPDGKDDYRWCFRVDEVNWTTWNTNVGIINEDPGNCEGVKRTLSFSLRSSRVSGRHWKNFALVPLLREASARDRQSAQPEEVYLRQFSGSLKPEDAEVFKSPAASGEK
Procedure: hTRPV1 was constructed by amplification of the hTRPV1 region (NCBI accession number: NG_029716.1) and cloned into pEAK10 vector (Edge Biosystems, Gaithersburg, MD, USA). The hTRPV1 construct was amplified by PCR and the nucleotide sequence of the hTRPV1 gene was confirmed by sequencing with an ABI 3130 DNA genetic analyzer (Applied Biosystems, Foster City, CA, USA). […] After 6 h, transfected cells were seeded onto 96-well black-wall plate (BD Falcon Labware, Franklin Lakes, NJ, USA) for 18–26 h prior to their use in an experiment. The ligand-induced changes on cytosolic Ca^2+ level were monitored by a FlexStation III microplate reader (Molecular Devices). Fluo-4 AM (5 µM, Molecular Probes, Eugene, OR, USA) in assay buffer was loaded to the cells in 96-well black-wall plates for 30 min at 27°C. After dye treatment, each chemical was added to each well at 17 s and changes on intracellular Ca^2+ level were monitored by relative fluorescence units (ΔRFU, Ex = 485 nm; Em = 516 nm) for 120 s. […] The responses from at least three wells receiving the same stimulus were averaged. Plots of amplitude versus concentration were fitted using the Hill equation.

[1] = tested on: non-hTRPA1-expressing Flp-In 293 cells; test: Ca2+ imaging of non-hTRPA1-expressing Flp-In 293 cells (control); type: cell-based, human; settings: comparison with hTRPA1-expressing cells
Procedure: Flp-In 293 cell lines stably expressing hTRPA1constructed as previously reported was a gift from the professor […] at University of Tokyo. The hTRPA1-expressing cells were cultured in DMEM containing 10% FBS and 0.02% hygromycin B (Invitrogen). Flp-In 293 cell lines were maintained in DMEM containing 10% FBS. All cells were incubated at 37°C in a humidified atmosphere of 5% CO2. […] Mock-transfected HEK293T cells, hTRPV1-expressing HEK293T cells, non-hTRPA1-expressing Flp-In 293 cells, and hTRPA1-expressing Flp-In 293 cells grown in 96-well black-wall plates were rinsed with assay buffer (130 mM NaCl, 10 mM glucose, 5 mM KCl, 2 […]2, 1.2 mM MgCl2, and 10 mM HEPES, pH 7.4) and loaded with 5 μM Fura-2 AM (Invitrogen) for 30 min at 27°C. The cells were washed with assay buffer and treated with ligands. […] The fluorescence intensities of Fura-2 excited at 340 and 380 nm were simultaneously measured at 510 nm using a computer-controlled filter changer (Lambda DG4; Sutter, San Rafael, CA, USA), an Andor Luca CCD camera (Andor Technology, Belfast, UK), and an inverted fluorescence microscope (IX-71; Olympus, Tokyo, Japan). Intracellular calcium images were recorded every 3-s for 60-s and analyzed using MetaFluor software (Molecular Devices, Sunnyvale, CA, USA).

EC50 (hTRPV1; hTRPV1-expressing HEK293T cells, Hill fit): 115 µM and ~115 µM
increase in [Ca2+]i relative to capsaicin (hTRPV1; hTRPV1-expressing cells): significantly smaller increase
Structure (SMILES): CC(C)=CCC/C(C)=C/CNC(=O)C1CC1 [NGCC, N-geranylcyclopropylcarboxamide]
effect on NaCl taste in human sensory studies (NaCl taste perception): significant enhancement in NaCl taste
NGCC activity in non-hTRPA1-expressing Flp-In 293 cells [1]: reacts specifically with hTRPA1
